Experimental data from patent US11654183B2 (INTARCIA THERAPEUTICS, INC., priority 2017, dated 2023).
Where two headings read alike, the source gives them in different places.

Key:
[1] = Crossover study of ITCA 650 on steady-state PK and PD of the combination oral contraceptive Levora; details: ITCA 650 60 mcg/day, healthy premenopausal women
Description: Twenty-eight (28) healthy premenopausal women on a stable regimen of an OC participated in a randomized, double-blind, placebo-controlled, 2-period crossover study. […] The study included a 2-week run-in on Levora and 2 treatment periods of 28 days each. […] Subjects were crossed over to the alternative treatment and procedures were repeated in Period 2. The OC was administered daily through D28 of each period.

[2] = compared to OC alone, cited from earlier work; for decrease of Cmax: repeated daily doses of OC given 30 minutes after BYETTA (10 mcg BID), healthy female subjects; for decrease of mean Cmax: repeated daily doses of OC one hour prior to BYETTA
[3] = human, in vivo, po
Description: APAP, a marker of gastric emptying, was administered on Day (D)1 followed by the cocktail on D2. […] APAP was administered again on D27 and the cocktail on D28.

[4] = cited from earlier work
[5] = 1000 mg acetaminophen elixir given 1 hour after 10 mcg BYETTA injection
[6] = 1000 mg acetaminophen elixir given 2 hours after 10 mcg BYETTA injection
[7] = 1000 mg acetaminophen elixir given 4 hours after 10 mcg BYETTA injection
[8] = 1000 mg acetaminophen elixir given with 10 mcg BYETTA (0 h)
[9] = acetaminophen given 1 hour before BYETTA injection

Row | effect of ITCA 650 on PK [1] | effect of ITCA 650 on PK of the co-administered drug [3] | Structure (SMILES) | decrease of Cmax [2] | decrease of mean Cmax [2] | Tmax [4, 5] | decrease of Cmax [4, 5] | decrease of acetaminophen AUC [4, 5] | Tmax [4, 6] | decrease of Cmax [4, 6] | decrease of acetaminophen AUC [4, 6] | Tmax [4, 7] | decrease of Cmax [4, 7] | decrease of acetaminophen AUC [4, 7] | Tmax [4, 8] | decrease of Cmax [4, 8] | decrease of acetaminophen AUC [4, 8] | AUC change [4, 9] | Cmax change [4, 9] | Tmax change [4, 9] | Tmax ([4]; control period (without BYETTA))
1 | No effect | – | C#C[C@]1(O)CC[C@H]2[C@@H]3CCC4=CC(=O)CC[C@@H]4[C@H]3CC[C@@]21CC [levonorgestrel] | 27% | not significantly changed | – | – | – | – | – | – | – | – | – | – | – | – | – | – | – | –
2 | – | minimal effect | CC(=O)Nc1ccc(O)cc1 [acetaminophen] | – | – | 4.2 h | 56% | 23% | 3.3 h | 54% | 24% | 1.6 h | 41% | 14% | 0.9 h | 37% | 21% | not significantly changed | not significantly changed | not significantly changed | 0.6 h
3 | – | – | C#C[C@]1(O)CC[C@H]2[C@@H]3CCc4cc(O)ccc4[C@H]3CC[C@@]21C [ethinyl estradiol] | 45% | 15% | – | – | – | – | – | – | – | – | – | – | – | – | – | – | – | –
